Reference: ChEMBL document CHEMBL4382202, “1-(2-Hydroxybenzoyl)-thiosemicarbazides are promising antimicrobial agents targeting d-alanine-d-alanine ligase in bacterio” (Eur J Med Chem, 2018)
Values after ≈ are worked out from the molar mass of the structure shown.

Assays:
Staphylococcus aureus [1] = test: Antibacterial activity against community-acquired methicillin and erythromycin resistant Staphylococcus aureus SA 325 after 18 to 24 hrs by microdilution assay; format: functional
Staphylococcus aureus [2] = test: Antibacterial activity against Staphylococcus aureus ATCC 25923 after 18 to 24 hrs by microdilution assay; format: functional
Staphylococcus aureus [3] = test: Antibacterial activity against methicillin and linezolid resistant Staphylococcus aureus NRS 119 clinical isolate after 18 to 24 hrs by microdilution assay; format: functional
Staphylococcus aureus [4] = test: Antibacterial activity against hospital-acquired methicillin and vacomycin resistant Staphylococcus aureus VRS-1 after 18 to 24 hrs by microdilution assay; format: functional
Staphylococcus aureus [5] = test: Antibacterial activity against methicillin and vancomycin intermediate resistant Staphylococcus aureus MU50 after 18 to 24 hrs by microdilution assay; format: functional
Enterococcus faecalis [6] = test: Antibacterial activity against vancomycin-resistant Enterococcus faecalis JH2-2::C1 after 18 to 24 hrs by microdilution assay; format: functional
Enterococcus faecalis [7] = test: Antibacterial activity against vancomycin-resistant Enterococcus faecalis BM 4575 clinical isolate after 18 to 24 hrs by microdilution assay; format: functional
Staphylococcus aureus [8] = test: Antibacterial activity against hospital-acquired methicillin/ciprofloxacin/moxifloxacin resistant Staphylococcus aureus SA 481 after 18 to 24 hrs by microdilution assay; format: functional
[9] = target: T1, D-alanine--D-alanine ligase (Enterococcus faecalis (strain ATCC 700802 / V583), UniProt Q47758); test: Inhibition of Enterococcus faecalis JH2-2 C-terminal 6His-tagged DdlB expressed in Escherichia coli LMG194 preincubated for 30 mins followed by substrate addition and measured after 20 mins by Biomol Green reagent assay
T1 sequence (Q47758 whole entry): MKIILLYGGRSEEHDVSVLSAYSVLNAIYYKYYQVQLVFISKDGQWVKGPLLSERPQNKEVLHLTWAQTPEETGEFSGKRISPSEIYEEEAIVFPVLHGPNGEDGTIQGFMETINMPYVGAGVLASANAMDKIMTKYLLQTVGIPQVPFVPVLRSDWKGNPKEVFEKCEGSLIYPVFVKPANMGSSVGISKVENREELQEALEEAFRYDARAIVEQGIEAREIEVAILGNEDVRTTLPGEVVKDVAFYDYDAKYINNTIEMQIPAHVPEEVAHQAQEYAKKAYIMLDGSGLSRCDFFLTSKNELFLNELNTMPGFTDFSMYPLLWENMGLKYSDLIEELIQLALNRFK

Enterococcus faecalis [10] = test: Antibacterial activity against vancomycin-resistant Enterococcus faecalis BM 4390 after 18 to 24 hrs by microdilution assay; format: functional
Enterococcus faecalis [11] = test: Antibacterial activity against Enterococcus faecalis ATCC 29212 after 18 to 24 hrs by microdilution assay; format: functional
[12] = target: T2, MAO-A (amine oxidase [flavin-containing] A) (Homo sapiens, UniProt P21397); test: Inhibition of human MAOA at 10 uM using kynuramine as substrate after 20 mins by spectrophotometric analysis relative to control; conditions: probe kynuramine
T2 sequence (P21397 whole entry): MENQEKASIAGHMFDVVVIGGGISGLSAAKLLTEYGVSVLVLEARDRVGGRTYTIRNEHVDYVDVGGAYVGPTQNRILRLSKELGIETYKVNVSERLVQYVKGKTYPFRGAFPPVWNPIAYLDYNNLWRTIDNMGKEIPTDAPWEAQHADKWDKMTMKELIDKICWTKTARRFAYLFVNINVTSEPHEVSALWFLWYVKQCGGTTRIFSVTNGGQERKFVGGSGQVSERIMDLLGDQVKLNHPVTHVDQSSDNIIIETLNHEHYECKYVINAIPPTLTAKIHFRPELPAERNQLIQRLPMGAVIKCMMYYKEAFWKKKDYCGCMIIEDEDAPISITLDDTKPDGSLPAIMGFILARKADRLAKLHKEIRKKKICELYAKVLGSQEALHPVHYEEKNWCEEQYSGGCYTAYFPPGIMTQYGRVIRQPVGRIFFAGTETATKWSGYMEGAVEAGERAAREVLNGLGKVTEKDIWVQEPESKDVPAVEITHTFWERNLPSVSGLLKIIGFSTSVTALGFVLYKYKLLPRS

hERG (KCNH2) = hERG (KCNH2) (Homo sapiens, UniProt Q12809); test: Displacement of [3H]-Dofetilide from recombinant human ERG at 10 uM after 60 mins by scintillation counting analysis relative to control; conditions: probe [3H]-dofetilide
hERG (KCNH2), sequence (Q12809 whole entry): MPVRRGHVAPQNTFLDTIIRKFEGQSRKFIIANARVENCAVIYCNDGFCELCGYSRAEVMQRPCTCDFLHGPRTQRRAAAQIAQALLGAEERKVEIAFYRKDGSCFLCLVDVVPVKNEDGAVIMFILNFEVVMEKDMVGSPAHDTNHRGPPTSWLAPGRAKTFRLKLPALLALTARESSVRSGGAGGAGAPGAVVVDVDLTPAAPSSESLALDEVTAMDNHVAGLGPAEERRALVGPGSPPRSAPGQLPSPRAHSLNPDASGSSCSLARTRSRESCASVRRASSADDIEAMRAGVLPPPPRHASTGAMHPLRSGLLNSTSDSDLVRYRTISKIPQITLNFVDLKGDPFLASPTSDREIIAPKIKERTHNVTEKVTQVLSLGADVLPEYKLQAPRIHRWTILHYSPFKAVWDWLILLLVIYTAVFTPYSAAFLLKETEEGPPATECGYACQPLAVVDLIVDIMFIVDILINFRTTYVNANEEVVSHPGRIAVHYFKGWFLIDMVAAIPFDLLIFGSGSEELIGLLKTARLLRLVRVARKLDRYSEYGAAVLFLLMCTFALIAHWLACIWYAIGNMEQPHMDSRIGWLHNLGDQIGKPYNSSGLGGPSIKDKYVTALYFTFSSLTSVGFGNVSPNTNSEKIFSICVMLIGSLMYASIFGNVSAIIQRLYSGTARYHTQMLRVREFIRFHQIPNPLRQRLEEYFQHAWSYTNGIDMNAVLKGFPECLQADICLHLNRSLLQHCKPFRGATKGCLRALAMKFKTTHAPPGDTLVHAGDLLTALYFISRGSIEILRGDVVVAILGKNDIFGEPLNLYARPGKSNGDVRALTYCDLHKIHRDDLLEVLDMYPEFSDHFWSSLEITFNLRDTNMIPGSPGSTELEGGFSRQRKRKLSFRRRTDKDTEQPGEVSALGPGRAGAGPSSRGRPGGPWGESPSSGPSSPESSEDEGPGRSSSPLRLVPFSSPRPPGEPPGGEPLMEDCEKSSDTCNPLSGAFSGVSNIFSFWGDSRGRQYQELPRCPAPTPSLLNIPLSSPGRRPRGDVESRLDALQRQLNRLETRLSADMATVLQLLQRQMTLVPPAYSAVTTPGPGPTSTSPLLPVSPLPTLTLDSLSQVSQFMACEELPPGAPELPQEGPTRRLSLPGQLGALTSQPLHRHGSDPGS

[13] = target: Secretory phospholipase A2; test: Inhibition of human sPLA2; format: protein assay
THP-1 = test: Cytotoxicity against human THP1 cells assessed as decrease in cell viability at 1 to 5 times MIC after 24 hrs by trypan blue exclusion assay relative to control; format: cell-based; conditions: thp-1, 24 h
[14] = Inhibition of Bacillus cereus beta-lactamase using nitrocefin as substrate preincubated for 15 mins followed by substrate addition and measured after 60 mins by spectrophotometric analysis
[15] = target: Voltage-gated inwardly rectifying potassium channel KCNH2 (Homo sapiens, UniProt Q12809); test: Displacement of [3H]-Dofetilide from recombinant human ERG after 60 mins by scintillation counting analysis
Voltage-gated inwardly rectifying potassium channel KCNH2, sequence (Q12809 whole entry): as above

Staphylococcus aureus [16] = test: Bactericidal activity against Staphylococcus aureus ATCC 25923 assessed as bacterial cell killing level at 0.1 mM after 24 hrs by time kill assay; format: functional
[17] = target: T1, D-alanine--D-alanine ligase; test: Inhibition of Enterococcus faecalis Ddl
[18] = Inhibition of 6His-tagged Staphylococcus aureus Ddl expressed in Escherichia coli M15 (pREP4) using ATP or d-alanine as substrate after 20 mins
[19] = Inhibition of full-length 6His-tagged Mycobacterium tuberculosis H37Rv Ddl expressed in Escherichia coli BL21(DE3)pLysS by UV-Vis spectrophotometric analysis
[20] = tested on: Mycobacterium tuberculosis; test: Antitubercular activity against Mycobacterium tuberculosis H37Rv; format: functional

O=C(NNC(=S)Nc1ccc(Cl)c(Cl)c1)c1cc2ccccc2cc1O
MIC (Staphylococcus aureus [1]): > 100 µM | MIC (Staphylococcus aureus [2]): > 100 µM | MIC (Staphylococcus aureus [3]): > 100 µM | MIC (Staphylococcus aureus [4]): > 100 µM | MIC (Staphylococcus aureus [5]): > 100 µM | MIC (Enterococcus faecalis [6]): > 100 µM | MIC (Enterococcus faecalis [7]): > 100 µM | MIC (Staphylococcus aureus [8]): > 100 µM | IC50 [9]: 560 nM | MIC (Enterococcus faecalis [10]): > 100 µM | MIC (Enterococcus faecalis [11]): > 400 µM

O=C(NNC(=S)Nc1ccc(Cl)c(Cl)c1)c1ccccc1O
MIC (Staphylococcus aureus [1]): 50 µM (≈ 17.8 µg/mL) | MIC (Staphylococcus aureus [2]): 100 µM (≈ 35.6 µg/mL) | MIC (Staphylococcus aureus [3]): 50 µM (≈ 17.8 µg/mL) | inhibition at 20 min, 10 µM [12]: ≤ 30% | MIC (Staphylococcus aureus [4]): 50 µM (≈ 17.8 µg/mL) | inhibition at 1 h, 10 µM (hERG (KCNH2)): ≤ 30% | MIC (Staphylococcus aureus [5]): 100 µM (≈ 35.6 µg/mL) | MIC (Enterococcus faecalis [6]): 100 µM (≈ 35.6 µg/mL) | MIC (Enterococcus faecalis [7]): 50 µM (≈ 17.8 µg/mL) | IC50 [13]: 20000 nM | MIC (Staphylococcus aureus [8]): 100 µM (≈ 35.6 µg/mL) | IC50 [9]: 1540 nM | Activity (THP-1): 12 to 25% | IC50 [14]: 11 nM | MIC (Enterococcus faecalis [10]): 50 µM (≈ 17.8 µg/mL) | MIC (Enterococcus faecalis [11]): 50 µM (≈ 17.8 µg/mL) | IC50 [15]: 80 nM | Activity (Staphylococcus aureus [16]): 99%

CCOC(=O)c1cc(Br)c2nc(-c3cccc(CN)c3)oc2c1
IC50 [17]: 432000 nM

CC(C)(CCl)C(=O)Nc1ccc(C(F)(F)F)cc1
Ki [18]: 4000 nM

N[C@@H]1CONC1=O [CYCLOSERINE]
MIC (Staphylococcus aureus [2]): 313 µM (≈ 32 µg/mL) | Ki [19]: 25000 nM | MIC [20]: 50 µg/mL (≈ 490 µM) | MIC (Enterococcus faecalis [11]): 1250 µM (≈ 128 µg/mL)
